According to the NIST ThermoML archive (doi:10.1021/je600554h):
Numbers after ± are expanded uncertainties.

Settings: 101.33 kPa, Liquid; for viscosity: Capillary tube (Ostwald / Ubbelohde) method

Compound `CCCCCCCC` [octane] has a mass density (273.15 K) of 718.58 ± 0.6 kg/m3, a viscosity (273.15 K) of 0.718 ± 0.009 mPa·s and a mass density (278.15 K) of 714.61 ± 0.61 kg/m3. The viscosity (278.15 K) was 0.671 ± 0.009 mPa·s, the mass density (283.15 K) was 710.62 ± 0.62 kg/m3 and the viscosity (283.15 K) was 0.623 ± 0.009 mPa·s. The mass density (288.15 K) was 706.62 ± 0.62 kg/m3, the viscosity (288.15 K) was 0.584 ± 0.009 mPa·s and the mass density (293.15 K) was 702.61 ± 0.63 kg/m3. For the same compound, the viscosity (293.15 K) was 0.545 ± 0.009 mPa·s, the mass density (298.15 K) was 698.57 ± 0.64 kg/m3 and the viscosity (298.15 K) was 0.514 ± 0.009 mPa·s. For the same compound, the mass density (303.15 K) was 694.52 ± 0.64 kg/m3, the viscosity (303.15 K) was 0.486 ± 0.009 mPa·s and the mass density (308.15 K) was 690.44 ± 0.65 kg/m3. It also gave a viscosity (308.15 K) of 0.459 ± 0.009 mPa·s, a mass density (313.15 K) of 686.35 ± 0.65 kg/m3 and a viscosity (313.15 K) of 0.434 ± 0.009 mPa·s. It also gave a mass density (318.15 K) of 682.23 ± 0.66 kg/m3, a viscosity (318.15 K) of 0.415 ± 0.009 mPa·s and a mass density (323.15 K) of 678.09 ± 0.67 kg/m3. For the same compound, the viscosity (323.15 K) was 0.394 ± 0.009 mPa·s, the mass density (328.15 K) was 673.92 ± 0.67 kg/m3 and the viscosity (328.15 K) was 0.375 ± 0.009 mPa·s. It also gave a mass density (333.15 K) of 669.71 ± 0.68 kg/m3, a viscosity (333.15 K) of 0.357 ± 0.008 mPa·s and a mass density (338.15 K) of 665.51 ± 0.69 kg/m3. For the same compound, the mass density (343.15 K) was 661.24 ± 0.69 kg/m3, the mass density (348.15 K) was 656.96 ± 0.7 kg/m3 and the mass density (353.15 K) was 652.63 ± 0.71 kg/m3. It also gave a mass density (358.15 K) of 648.26 ± 0.72 kg/m3 and a mass density (363.15 K) of 643.85 ± 0.72 kg/m3.

Compound `CCCCCCC` [heptane] has a mass density (273.15 K) of 700.75 ± 0.62 kg/m3, a viscosity (273.15 K) of 0.526 ± 0.009 mPa·s and a mass density (278.15 K) of 696.59 ± 0.62 kg/m3. For the same compound, the viscosity (278.15 K) was 0.495 ± 0.009 mPa·s, the mass density (283.15 K) was 692.42 ± 0.63 kg/m3 and the viscosity (283.15 K) was 0.465 ± 0.009 mPa·s. For the same compound, the mass density (288.15 K) was 688.22 ± 0.64 kg/m3, the viscosity (288.15 K) was 0.438 ± 0.009 mPa·s and the mass density (293.15 K) was 684 ± 0.64 kg/m3. The viscosity (293.15 K) was 0.415 ± 0.009 mPa·s, the mass density (298.15 K) was 679.75 ± 0.65 kg/m3 and the viscosity (298.15 K) was 0.392 ± 0.009 mPa·s. For the same compound, the mass density (303.15 K) was 675.48 ± 0.66 kg/m3, the viscosity (303.15 K) was 0.372 ± 0.008 mPa·s and the mass density (308.15 K) was 671.19 ± 0.66 kg/m3. It also gave a viscosity (308.15 K) of 0.354 ± 0.008 mPa·s, a mass density (313.15 K) of 666.86 ± 0.67 kg/m3 and a viscosity (313.15 K) of 0.336 ± 0.008 mPa·s. It also gave a mass density (318.15 K) of 662.5 ± 0.68 kg/m3, a mass density (323.15 K) of 658.11 ± 0.68 kg/m3 and a mass density (328.15 K) of 653.68 ± 0.69 kg/m3. The mass density (333.15 K) was 649.22 ± 0.7 kg/m3, the mass density (338.15 K) was 644.72 ± 0.71 kg/m3 and the mass density (343.15 K) was 640.17 ± 0.71 kg/m3. For the same compound, the mass density (348.15 K) was 635.58 ± 0.72 kg/m3, the mass density (353.15 K) was 630.41 ± 0.73 kg/m3 and the mass density (358.15 K) was 626.34 ± 0.74 kg/m3.

Compound `COC(C)(C)C` [2-methoxy-2-methylpropane] has a mass density (273.15 K) of 761.34 ± 0.25 kg/m3, a viscosity (273.15 K) of 0.443 ± 0.009 mPa·s and a mass density (278.15 K) of 756.14 ± 0.26 kg/m3. The viscosity (278.15 K) was 0.417 ± 0.009 mPa·s, the mass density (283.15 K) was 751.02 ± 0.26 kg/m3 and the viscosity (283.15 K) was 0.392 ± 0.008 mPa·s. For the same compound, the mass density (288.15 K) was 745.85 ± 0.27 kg/m3, the viscosity (288.15 K) was 0.37 ± 0.008 mPa·s and the mass density (293.15 K) was 740.65 ± 0.27 kg/m3. For the same compound, the mass density (298.15 K) was 735.4 ± 0.27 kg/m3, the mass density (303.15 K) was 730.1 ± 0.28 kg/m3 and the mass density (308.15 K) was 724.82 ± 0.28 kg/m3. It also gave a mass density (313.15 K) of 719.42 ± 0.29 kg/m3 and a mass density (318.15 K) of 713.96 ± 0.29 kg/m3.
